According to publication PMC12731105, “Design and Synthesis of New Quinoxaline Analogs to Regenerate Sensory Auditory Hair Cells” (Cells, 2025):

Experiments:
[1] = tested on: zebrafish lateral line neuromast HCs; assay: Zebrafish neuromast morphology scoring (otoferlin/GFP immunofluorescence); format: in vivo, zebrafish (Danio rerio); details: 5-dpf zebrafish, 24 h; for Neuromast morphology scores vs control: 50–300 μg/mL in E3 medium, Kruskal–Wallis, p > 0.05
Procedure: The GFP (Tg(brn3c: GFP) zebrafish larvae expressing HC membrane-bound GFP [19] were used to evaluate the effect of Qx-294 and Qx-301 on HCs and SCs of the lateral line neuromasts. Healthy 5-dpf zebrafish, maintained at 28.5 °C, were randomly distributed into Petri dishes at a density of 50 embryos/larvae per 100 mm^2 and exposed to various concentrations of Qx-294 and Qx-301 (50, 100, 150, 200, 250, and 300 μg/mL) diluted in E3 (5 mM NaCl, 0.17 mM KCl, 0.33 mM CaCl2 and 0.33 MgSO4, pH 7.2) medium for 24 h. Following treatment, the animals were transferred to E3 media for 30 min to recover, then cryoanesthetized and fixed with 4% paraformaldehyde (PFA) overnight at 4 °C. The following neuromasts were analyzed in our studies: IO4 (infraorbital 4), OP1 (opercular 1), M2 (mandibular 2), O1 (otic 1), O2, and MI2 (middle 2). An arbitrary scoring protocol was used to rank the morphology of each neuromast after treatment as follows: 1 (normal rosette-like shape, HCs look normal, HC bundles are properly arranged), 2 (normal rosette-like shape, a few HCs appear to be missing, but HC bundles are properly arranged), 3 (normal rosette-like morphology but several HCs are gone and HC bundles look disturbed), 4 (the rosette-like shape is lost in certain areas, few HCs, and few disrupted HC bundles), and 5 (no rosette-like shape, one or two dispersed HCs and no HC bundles). At least 25 animals per treatment were assessed, for a total of 200 across the entire study. The assessment was performed in a double-blind and unbiased manner. Scores were expressed as percentages of the total of neuromasts analyzed per treatment.
Cochlear dissection in mice and immunofluorescence experiments on zebrafish neuromasts and mouse cochleae were performed as previously described. The antibody and labeling kits used in this study included Otoferlin (Developmental Studies Hybridoma Bank, Iowa City, IA, USA, HCS-1), GFP (Novus Biologicals, NB100-1614), and rabbit anti-myosin VIIa (M7a) (Thermo Scientific, Waltham, MA, USA, PA1-936). Species-specific Alexa Fluor-conjugated secondary antibodies were used for detection. Phalloidin conjugated to Alexa 488 (Thermo Scientific, Waltham, MA, USA, O7466) and DAPI were used for labeling stereocilia and the nucleus, respectively.

[2] = tested on: mechanotransduction channel activity of mouse cochlear HCs; assay: FM1-43 uptake in mouse cochlear HCs; format: in vivo; details: mice, 24, 48 and 72 h after injection
Procedure: The styryl pyridinium dye FM1-43 provides an optical measure of mechanotransduction channel function and, therefore, was used as a proxy for the viability of the neuromast cells treated with QX-294 or QX-301, as well as indirect information on the functional capability of newly formed HCs. FM1-43FX (Thermo Scientific, Waltham, MA, USA) uptake experiments in zebrafish were performed as previously described. Zebrafish were incubated with E3 alone (control) or in the presence of Qx-294 or Qx-301, both at 300 μM, for 7 h and then immediately exposed to 3 μM FM1-43FX for 40 s. Alternatively, animals were transferred to a fresh E3 solution for 1 h and then exposed to the dye. For mouse treatment, 24, 48, and 72 h after animals were injected with […] Qx-294 or Qx-301, their cochleae were dissected, transiently exposed to FM1-43 FX dye (1 mg/mL) for 45 s, and then fixed in 4% PFA. All animals were P28 at completion of the treatment. Fluorescence incorporated was quantified according to [19] using ImageJ (ImageJ2 1.54r).

mouse auditory function = assay: Distortion product otoacoustic emissions (DPOAE); format: in vivo, mice (Mus musculus); details: for Frequencies at which DPOAE threshold improvement was statistically significant: 72 h group, p < 0.05; for Frequencies at which DPOAE threshold improvement was statistically significant / DPOAE thresholds at higher frequencies vs control: Two-Way ANOVA; for DPOAE vs control, 24 h treatment / DPOAE thresholds at higher frequencies vs control: C57BL/6J mice; for DPOAE vs control, 24 h treatment: 24 h post-treatment; for DPOAE thresholds at higher frequencies vs control: p < 0.01
Procedure: C57BL/6J male and female mice between postnatal day 24 and 30 P-24-30) were randomized into control and experimental groups (9 mice per group per compound), with each experimental group receiving a single intraperitoneal (IP) injection of Qx-294 or Qx-301 at a dose of 300 mg/kg body weight, dissolved in dimethyl sulfoxide (DMSO). Controls consisted of treatment with DMSO alone (vehicle). A total of 90 adult wild-type C57/BL6 mice were used in this study. Based on the analysis, animals were examined at various times following treatment as described below.
Mice from all groups underwent auditory brainstem response (ABR) and distortion product otoacoustic emissions (DPOAEs) tests before the initiation of treatment with either compounds or vehicle, and at 24, 48, and 72 h post-treatment, as described below. After audiometric testing, pre-treatment mice were placed in a warm and clean cage and monitored until they were awake and able to remain upright in a sternal position. Alternatively, post-treatment mice had their cochleae processed for histological examination.
Methods for recording distortion product otoacoustic emissions (DPOAEs) were similar to those previously described. Stimuli for DPOAEs were generated and controlled with modules from TDT. Pure tone frequencies (f1, f2, f2/f1 ratio ¼ 1.25), at equal levels (L1 ¼ L2 ¼ 60 dBSPL), 150 ms duration, were generated with independent sources (TDT RX6 processor) and routed through separate drivers to mix acoustically in the ear canal (via plastic tubing placed securely at the external acoustic meatus). Stimuli were calibrated in a 0.1 mL coupler, which simulates the volume of the mouse ear canal. Stimulus frequencies for the primaries are such that geometric mean (GM ¼ (f1 x f2)0.5) frequencies ranged from 6.0 to 48.5 kHz (at least eight frequencies per octave). Ear canal sound pressure levels were recorded using a low-noise probe microphone (Etymotic ER 10Bþ). The microphone output was amplified and fed into the TDT RX6 processor for digital sampling, spectral averaging, and fast Fourier transform (FFT) processing. The amplitude of f1, f2, and the cubic difference distortion product (2f1–f2) were measured from the FFT waveform. The noise floor was measured from the amplitudes in the fifth and twelfth frequency bins above and below (±60 and 120, resp.) the 2f1-f2 component. For statistical comparison (Two-Way ANOVA), the mean DPOAE amplitude across all tested primary frequency pairs was calculated and compared between treatment and control groups.

Row | Neuromast morphology at the highest concentrations vs control ([1]; not statistically significant) | Neuromast morphology at 50 and 150 μg/mL ([1]; not statistically significant) | SMILES | Neuromast morphology scores vs control [1] | FM1-43 fluorescence intensity incorporated by the cochleae vs control [2] | Frequencies at which DPOAE threshold improvement was statistically significant (mouse auditory function) | DPOAE vs control, 24 h treatment (mouse auditory function) | DPOAE thresholds at higher frequencies vs control (mouse auditory function)
1 | improved morphology | – | c1ccc2nc(N3CCCC3)cnc2c1 [Qx-301, 2-(pyrrolidine)-quinoxaline] | did not differ significantly from those of the control group | did not show any significant differences from the control samples | above 22.6 kHz | no statistically significant differences | significantly lower than those of the control group
2 | – | some HC loss was observed | c1ccc2nc(N3CCOCC3)cnc2c1 [Qx-294, 2-(morpholine)-quinoxaline] | did not differ significantly from those of the control group | did not show any significant differences from the control samples | above 16 kHz | no statistically significant differences | significantly lower than those of the control group
